The values that follow are results of earlier work, collected in patent publication US11793200B2, “Hypochlorous acid disinfectant and its production method” (SUPER AQUA INTERNATIONAL CO., LTD., priority 2019, dated 2023).

This data set concerns coliform. Conditions: compared with hypochlorite ion (CLO-); both effective free chlorine; FIG. 2.

On to `OCl` [hypochlorous acid (HCLO), Hypochlorous acid], for which the “sterilization of hypochlorous acid (HCLO) relative to hypochlorite ion (CLO-)” value is listed as 80 times.
